# Results published in ChEMBL document CHEMBL1201862, “PubChem BioAssay data set” (2004).
#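 Results reflect a 48-hour exposure of cells in 96-well plates to compound at five concentrations. Abbreviation: GI50, concentration required for 50% inhibition of growth.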 Active and inactive are the calls of the source. Cut-off read from the data, not from the text of the source: active = GI50 up to about 1.1 µM and inactive = higher. Positions of bridges follow the written chain, without caps; N, C: chain ends. Residues, ends and D or L forms follow the SMILES beside them.
# Columns and labels:
# Test in all cases: inhibition of tumour cell growth, NCI panel, 48 h
# A549 = system: A549
# U-251 = system: U-251
# MDA-MB-231 = system: MDA-MB-231
# SF-268 = system: SF-268
# HOP-62 = system: HOP-62
# MCF7 = system: MCF7
# HCT-116 = system: HCT-116
# IGROV-1 = system: IGROV-1
# SNB-19 = system: SNB-19
# COLO 205 = system: COLO 205
# MOLT-4 = system: MOLT-4
# RPMI-8226 = system: RPMI-8226
# SF-539 = system: SF-539
# NCI-H226 = system: NCI-H226
# HOP-92 = system: HOP-92
# SN12C = system: SN12C
# PC-3 = system: PC-3
# LOX IMVI = system: LOX IMVI
# SK-MEL-5 = system: SK-MEL-5
# A498 = system: A498
SMILES,GI50 (A549),GI50 (U-251),GI50 (MDA-MB-231),GI50 (SF-268),GI50 (HOP-62),GI50 (MCF7),GI50 (HCT-116),GI50 (IGROV-1),GI50 (SNB-19),GI50 (COLO 205),GI50 (MOLT-4),GI50 (RPMI-8226),GI50 (SF-539),GI50 (NCI-H226),GI50 (HOP-92),GI50 (SN12C),GI50 (PC-3),GI50 (LOX IMVI),GI50 (SK-MEL-5),GI50 (A498)
Cc1cc(C)c2ccc(N3CCNCC3)nc2n1,> 100 µM (inactive),> 100 µM (inactive),> 100 µM (inactive),> 100 µM (inactive),> 100 µM (inactive),> 100 µM (inactive),84.1 µM (inactive),> 100 µM (inactive),> 100 µM (inactive),64.6 µM (inactive),> 100 µM (inactive),> 100 µM (inactive),> 100 µM (inactive),> 100 µM (inactive),> 100 µM (inactive),> 100 µM (inactive),> 100 µM (inactive),> 100 µM (inactive),–,–
C=CCCCCCCCCC(=O)ON(Cc1ccc(O)c(OC)c1)C(=O)C(F)(F)F,> 100 µM (inactive),> 100 µM (inactive),> 100 µM (inactive),> 100 µM (inactive),> 100 µM (inactive),> 100 µM (inactive),> 100 µM (inactive),> 100 µM (inactive),> 100 µM (inactive),> 100 µM (inactive),31.3 µM (inactive),> 100 µM (inactive),> 100 µM (inactive),21.4 µM (inactive),34.2 µM (inactive),> 100 µM (inactive),–,> 100 µM (inactive),> 100 µM (inactive),44.1 µM (inactive)
c1ccc(Cc2cc(-c3ccccc3)[nH]n2)cc1,11.1 µM (inactive),13.2 µM (inactive),11.5 µM (inactive),22.3 µM (inactive),24.8 µM (inactive),19.8 µM (inactive),25.9 µM (inactive),18.1 µM (inactive),23.2 µM (inactive),17.4 µM (inactive),10.4 µM (inactive),–,–,12.5 µM (inactive),–,13.5 µM (inactive),15.8 µM (inactive),15.1 µM (inactive),–,–
O=c1/c(=C/c2ccccn2)sc2nc3cc4c(cc3n12)OCCO4,> 100 µM (inactive),> 100 µM (inactive),> 100 µM (inactive),> 100 µM (inactive),> 100 µM (inactive),–,> 100 µM (inactive),> 100 µM (inactive),> 100 µM (inactive),> 100 µM (inactive),> 100 µM (inactive),> 100 µM (inactive),–,> 100 µM (inactive),> 100 µM (inactive),> 100 µM (inactive),> 100 µM (inactive),> 100 µM (inactive),> 100 µM (inactive),> 100 µM (inactive)
COc1ccc(-c2nc3ncccn3c2-c2ccc([S+](C)[O-])cc2)cc1 (stereo unspecified),> 100 µM (inactive),> 100 µM (inactive),> 100 µM (inactive),89.5 µM (inactive),> 100 µM (inactive),28.3 µM (inactive),> 100 µM (inactive),> 100 µM (inactive),> 100 µM (inactive),> 100 µM (inactive),> 100 µM (inactive),> 100 µM (inactive),> 100 µM (inactive),–,61.2 µM (inactive),> 100 µM (inactive),> 100 µM (inactive),> 100 µM (inactive),36.8 µM (inactive),–
CCC(C)C1NC(=O)C(CC(C)C)NC(=O)C(C(C)C)NC(=O)C2CSSCC(NC1=O)C(=O)N2 (stereo unspecified) (cyclo(CCVLI); disulfide 1-2; configuration not given here),0.177 µM (active),0.0385 µM (active),0.103 µM (active),0.0387 µM (active),0.186 µM (active),0.0318 µM (active),0.0498 µM (active),0.165 µM (active),0.166 µM (active),0.0991 µM (active),0.0165 µM (active),0.0262 µM (active),0.144 µM (active),–,0.121 µM (active),0.192 µM (active),0.147 µM (active),0.0573 µM (active),0.153 µM (active),–
